Experimental data: the NIST ThermoML archive (doi:10.1016/j.fluid.2013.12.017)
Numbers after ± are expanded uncertainties.

Assay: molar heat capacity at constant pressure; xn = mol fraction of the nth substance listed
Details: 101 kPa, Liquid, Small sample (50 mg) DSC

CCC(N)(CO)CO [2-amino-2-ethyl-1,3-propanediol] + O
molar heat capacity at constant pressure [J/K/mol]
Details | x1 = 0.1494 | x1 = 0.3002 | x1 = 0.4502 | x1 = 0.5992 | x1 = 0.7505 | x1 = 0.8989 | x1 = 1
303.15 K | 107.2 ± 4.5 | 141.9 ± 6 | 178.1 ± 7.6 | 216.5 ± 9.2 | 260.2 ± 11 | 314.7 ± 13 | 367.5 ± 16
308.15 K | 108.6 ± 4.6 | 143.7 ± 6.1 | 180.3 ± 7.7 | 219.2 ± 9.3 | 263.4 ± 11 | 318.5 ± 14 | 370.5 ± 16
313.15 K | 110 ± 4.7 | 145.5 ± 6.2 | 182.5 ± 7.7 | 221.9 ± 9.4 | 266.6 ± 11 | 322.3 ± 14 | 374.1 ± 16
318.15 K | 111.3 ± 4.7 | 147.3 ± 6.3 | 184.7 ± 7.8 | 224.7 ± 9.5 | 269.9 ± 12 | 325.9 ± 14 | 378 ± 16
323.15 K | 112.7 ± 4.8 | 149.1 ± 6.3 | 186.9 ± 7.9 | 227.4 ± 9.6 | 273.1 ± 12 | 329.6 ± 14 | 381.5 ± 16
328.15 K | 113.8 ± 4.8 | 151 ± 6.4 | 189.1 ± 8 | 230.1 ± 9.8 | 276.4 ± 12 | 333.3 ± 14 | 385.8 ± 16
333.15 K | 115.5 ± 4.9 | 152.8 ± 6.5 | 191.3 ± 8.1 | 232.8 ± 9.9 | 279.6 ± 12 | 337 ± 14 | 389.9 ± 16
338.15 K | 116.8 ± 5 | 154.6 ± 6.6 | 193.5 ± 8.2 | 235.6 ± 10 | 282.8 ± 12 | 340.7 ± 14 | 393.9 ± 17
343.15 K | 118.3 ± 5 | 156.5 ± 6.6 | 195.7 ± 8.3 | 238.3 ± 10 | 286.1 ± 12 | 344.4 ± 15 | 398.6 ± 17
348.15 K | 119.6 ± 5.1 | 158.3 ± 6.7 | 197.9 ± 8.4 | 241 ± 10 | 289.3 ± 12 | 348.3 ± 15 | 403.1 ± 17
353.15 K | 121.3 ± 5.1 | 160.2 ± 6.8 | 200.2 ± 8.5 | 243.8 ± 10 | 292.6 ± 12 | 352 ± 15 | 408.2 ± 17
